Read-outs that look alike come from different tables or passages of the source.
Target: T1, Sphingosine-1-phosphate receptor 1 (S1P1) (Mus musculus, UniProt O08530)
T1 construct: gene S1pr1; mouse S1pr1 coding region with C terminus linked to C-terminal firefly luciferase fragment (amino acids #394–550), S1P1–CLuc; with NLuc–β-arrestin2
Assay: split luciferase β-arrestin2 recruitment (bioluminescence) in knock-in mouse embryonic fibroblasts
Format: cell-based

T1 sequence (O08530 2-382): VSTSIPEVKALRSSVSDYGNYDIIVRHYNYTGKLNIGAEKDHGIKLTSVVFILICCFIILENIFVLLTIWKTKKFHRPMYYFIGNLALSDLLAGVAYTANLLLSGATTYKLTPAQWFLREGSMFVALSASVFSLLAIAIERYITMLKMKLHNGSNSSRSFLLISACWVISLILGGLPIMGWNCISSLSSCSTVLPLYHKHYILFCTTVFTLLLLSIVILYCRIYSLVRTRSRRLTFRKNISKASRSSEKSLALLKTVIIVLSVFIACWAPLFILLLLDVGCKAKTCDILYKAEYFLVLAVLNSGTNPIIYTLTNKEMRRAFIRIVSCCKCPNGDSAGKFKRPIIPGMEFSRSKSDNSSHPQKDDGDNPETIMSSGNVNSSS
T1 sequence (Q91YI4 whole entry partner, the tested form may be a part): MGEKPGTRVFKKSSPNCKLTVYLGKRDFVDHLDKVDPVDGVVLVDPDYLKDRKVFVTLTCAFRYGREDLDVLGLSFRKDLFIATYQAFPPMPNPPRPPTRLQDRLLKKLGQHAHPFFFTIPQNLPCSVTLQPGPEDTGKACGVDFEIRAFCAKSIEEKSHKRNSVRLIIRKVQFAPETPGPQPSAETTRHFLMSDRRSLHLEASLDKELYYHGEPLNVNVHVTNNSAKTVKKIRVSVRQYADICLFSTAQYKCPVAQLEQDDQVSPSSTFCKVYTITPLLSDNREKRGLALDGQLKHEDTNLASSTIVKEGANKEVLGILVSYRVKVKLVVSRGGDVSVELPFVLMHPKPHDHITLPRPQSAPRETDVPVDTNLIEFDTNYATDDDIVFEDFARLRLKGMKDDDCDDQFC

EC50 (read-out: EC50) [nM] | SMILES | EC50 [nM]
– | CCCCCCCCCCCCCCC[C@@H](O)[C@@H](N)COP(=O)(O)O [dihydro-S1P] | 32.4 ± 0.5
19.4 ± 0.8 | CCCCCCCCCCCCC/C=C/[C@@H](O)[C@@H](N)COP(=O)(O)O [S1P] | –
